Tests used:
[1] = target: Epidermal growth factor receptor (Homo sapiens, UniProt P00533); assay: Inhibition of Epidermal Growth Factor (EGF) at 10 µM in the Eurofins-Panlabs radioligand binding assay (Eurofins_assay_225510)
[2] = target: Glutamate receptor ionotropic, kainate (Rattus norvegicus) (UniProt P22756+Q01812+P42260+P42264+Q63273); assay: Inhibition of Glutamate, Kainate at 10 µM in the Eurofins-Panlabs radioligand binding assay (Eurofins_assay_232700); conditions: Compound concentration 10.0 uM
[3] = target: Neuropeptide Y receptor type 2 (Homo sapiens) (UniProt P49146); assay: Inhibition of Neuropeptide Y Y2 at 10 µM in the Eurofins-Panlabs radioligand binding assay (Eurofins_assay_257110); conditions: Compound concentration 10.0 uM
Sequence of Neuropeptide Y receptor type 2 (Homo sapiens) (P49146 whole entry): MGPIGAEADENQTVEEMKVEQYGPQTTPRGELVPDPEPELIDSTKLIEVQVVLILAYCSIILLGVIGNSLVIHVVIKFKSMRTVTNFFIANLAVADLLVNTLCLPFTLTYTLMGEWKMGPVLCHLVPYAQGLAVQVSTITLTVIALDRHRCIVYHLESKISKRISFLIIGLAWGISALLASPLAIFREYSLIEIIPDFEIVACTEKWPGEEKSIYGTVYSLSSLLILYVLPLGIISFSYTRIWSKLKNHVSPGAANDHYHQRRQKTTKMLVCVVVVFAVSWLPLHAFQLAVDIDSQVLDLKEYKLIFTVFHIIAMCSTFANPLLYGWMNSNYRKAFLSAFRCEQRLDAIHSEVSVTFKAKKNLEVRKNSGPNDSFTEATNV

[4] = target: Kappa-type opioid receptor (Homo sapiens, UniProt P41145); assay: Inhibition of Opiate kappa (OP2, KOP) at compound concentration of 10.0 uM in the Eurofins-Panlabs radioligand binding assay (Eurofins_assay_260210); parameters: ligand concentration 0.6 nM, non-specific ligand with concentration 10 uM Naloxone, incubation time 60 min, incubation temperature 25 C
Sequence of Kappa-type opioid receptor (P41145 whole entry): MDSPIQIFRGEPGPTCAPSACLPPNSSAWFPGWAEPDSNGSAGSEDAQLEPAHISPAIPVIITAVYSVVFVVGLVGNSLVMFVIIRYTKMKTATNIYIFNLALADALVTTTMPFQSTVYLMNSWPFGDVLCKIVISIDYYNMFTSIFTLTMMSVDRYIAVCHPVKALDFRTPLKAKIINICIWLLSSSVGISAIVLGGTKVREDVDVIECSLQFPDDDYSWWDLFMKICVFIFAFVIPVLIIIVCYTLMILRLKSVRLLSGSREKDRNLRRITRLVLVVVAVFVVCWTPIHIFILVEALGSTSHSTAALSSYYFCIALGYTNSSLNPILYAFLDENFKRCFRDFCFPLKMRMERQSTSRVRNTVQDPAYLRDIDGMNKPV

[5] = target: hERG (KCNH2) potassium channel (Homo sapiens, UniProt Q12809); assay: Inhibition of Potassium Channel hERG at 10 µM in the Eurofins-Panlabs radioligand binding assay (Eurofins_assay_265900); parameters: ligand concentration 1.5 nM, non-specific ligand with concentration Astemizole, incubation time 60 min, incubation temperature 25 °C; conditions: HEK-293 cells expressing human recombinant hERG, probe [3H] Astemizole, 1.5 nM, compound concentration 10 uM
[6] = target: Interstitial collagenase (Homo sapiens) (UniProt P03956); assay: Inhibition of Peptidase, Matrix Metalloproteinase-1 (MMP-1) at 10 µM in the Eurofins-Panlabs enzyme assay (Eurofins_assay_114110); conditions: Compound concentration 10.0 uM
[7] = target: C-X-C chemokine receptor type 2 (Homo sapiens) (UniProt P25025); assay: Inhibition of Chemokine CXCR2 (IL-8RB) at 10 µM in the Eurofins-Panlabs radioligand binding assay (Eurofins_assay_244500)
[8] = target: Melanocortin receptor 3 (Homo sapiens) (UniProt P41968); assay: Inhibition of Melanocortin MC3 at 10 µM in the Eurofins-Panlabs radioligand binding assay (Eurofins_assay_251300); parameters: ligand concentration 0.035 nM; conditions: Compound concentration 10.0 uM
[9] = target: 5-hydroxytryptamine receptor 1B (Homo sapiens) (UniProt P28222); assay: Inhibition of Serotonin (5-Hydroxytryptamine) 5-HT1B at 10 µM in the Eurofins-Panlabs radioligand binding assay (Eurofins_assay_271200); conditions: Compound concentration 10.0 uM
Sequence of 5-hydroxytryptamine receptor 1B (Homo sapiens) (P28222 whole entry): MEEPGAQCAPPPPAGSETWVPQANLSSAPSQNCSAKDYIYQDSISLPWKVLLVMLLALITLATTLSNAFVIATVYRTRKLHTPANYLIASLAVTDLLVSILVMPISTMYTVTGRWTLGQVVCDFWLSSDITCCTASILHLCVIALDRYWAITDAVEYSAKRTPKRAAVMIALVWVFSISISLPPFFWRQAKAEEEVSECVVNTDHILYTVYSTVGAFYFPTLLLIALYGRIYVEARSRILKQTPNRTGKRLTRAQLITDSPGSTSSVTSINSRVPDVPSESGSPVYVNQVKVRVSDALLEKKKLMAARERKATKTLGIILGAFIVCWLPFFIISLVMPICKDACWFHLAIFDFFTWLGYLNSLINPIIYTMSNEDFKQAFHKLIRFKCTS

[10] = target: 5-hydroxytryptamine receptor 4 (Homo sapiens) (UniProt Q13639); assay: Inhibition of Serotonin (5-Hydroxytryptamine) 5-HT4 at 10 µM in the Eurofins-Panlabs radioligand binding assay (Eurofins_assay_272000); conditions: Cavia porcellus; Compound concentration 10.0 uM
Sequence of 5-hydroxytryptamine receptor 4 (Homo sapiens) (Q13639 whole entry): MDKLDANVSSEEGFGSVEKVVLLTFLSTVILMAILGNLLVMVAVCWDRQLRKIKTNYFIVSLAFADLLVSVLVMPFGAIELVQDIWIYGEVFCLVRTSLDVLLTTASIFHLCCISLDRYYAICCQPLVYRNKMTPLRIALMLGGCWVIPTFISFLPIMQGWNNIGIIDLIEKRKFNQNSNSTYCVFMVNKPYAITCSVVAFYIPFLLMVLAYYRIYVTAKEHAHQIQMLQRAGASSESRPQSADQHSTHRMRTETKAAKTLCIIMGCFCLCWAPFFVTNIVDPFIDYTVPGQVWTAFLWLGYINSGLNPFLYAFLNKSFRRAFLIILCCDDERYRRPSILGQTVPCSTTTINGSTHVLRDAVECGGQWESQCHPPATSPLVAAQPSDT

[11] = target: Adenosine Transporter (Cavia porcellus) (UniProt H0V4R7+H0UUG1+H0V3Z5); assay: Inhibition of Transporter, Adenosine at compound concentration of 10.0 uM in the Eurofins-Panlabs radioligand binding assay (Eurofins_assay_202000); type: protein assay; parameters: ligand concentration 0.5 nM, non-specific ligand with concentration 5 uM Nitrobenzylthioinosine, incubation time 30 min, incubation temperature 25 C; conditions: Compound concentration 10.0 uM
[12] = target: Vasoactive intestinal polypeptide receptor 1 (Homo sapiens) (UniProt P32241); assay: Inhibition of Vasoactive Intestinal Peptide VIP1 at 10 µM in the Eurofins-Panlabs radioligand binding assay (Eurofins_assay_287010); conditions: Compound concentration 10.0 uM
[13] = target: monoamine oxidase B (MAO-B) (Homo sapiens, UniProt P27338); assay: Inhibition of Monoamine Oxidase MAO-B at compound concentration of 10.0 uM in the Eurofins-Panlabs enzyme assay (Eurofins_assay_140120); parameters: substrate with concentration 50 uM Kynuramine, incubation time 60 min, incubation temperature 37 C; conditions: human recombinant MAO-B expressed in insect Hi5 cells, probe kynuramine, 50 uM, compound concentration 10 uM
Sequence of monoamine oxidase B (MAO-B) (P27338 whole entry): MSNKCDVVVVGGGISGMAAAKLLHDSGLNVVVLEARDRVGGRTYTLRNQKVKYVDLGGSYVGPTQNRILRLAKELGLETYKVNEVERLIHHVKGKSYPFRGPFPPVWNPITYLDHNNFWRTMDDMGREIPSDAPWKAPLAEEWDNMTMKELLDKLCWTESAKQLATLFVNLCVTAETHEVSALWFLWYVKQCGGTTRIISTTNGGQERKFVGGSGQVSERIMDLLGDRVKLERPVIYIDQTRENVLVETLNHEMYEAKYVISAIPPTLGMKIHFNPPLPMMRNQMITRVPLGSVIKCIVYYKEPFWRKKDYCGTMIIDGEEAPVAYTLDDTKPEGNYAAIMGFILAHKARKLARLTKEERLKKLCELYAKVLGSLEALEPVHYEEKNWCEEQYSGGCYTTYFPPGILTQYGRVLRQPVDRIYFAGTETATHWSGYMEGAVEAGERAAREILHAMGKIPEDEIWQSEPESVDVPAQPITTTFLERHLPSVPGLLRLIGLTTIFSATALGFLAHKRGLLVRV

[14] = species on record: Rattus norvegicus; assay: Protein Serine/Threonine Kinase, PKC, Non-Selective Eurofins-Panlabs enzyme assay; conditions: Compound concentration 10.0 uM
[15] = target: Nociceptin receptor (Homo sapiens) (UniProt P41146); assay: Orphanin ORL1 Eurofins-Panlabs radioligand binding assay; conditions: Compound concentration 10.0 uM
[16] = target: T1, Prostaglandin E2 receptor EP3 subtype (Homo sapiens) (UniProt P43115); assay: (§1) Prostanoid EP3 Eurofins-Panlabs radioligand binding assay; parameters: ligand concentration 0.5 nM, non-specific ligand with concentration 10 µM Prostaglandin EŽ2 (PGE2), incubation time 60 min, incubation temperature 25 °C
T1 sequence (whole entry): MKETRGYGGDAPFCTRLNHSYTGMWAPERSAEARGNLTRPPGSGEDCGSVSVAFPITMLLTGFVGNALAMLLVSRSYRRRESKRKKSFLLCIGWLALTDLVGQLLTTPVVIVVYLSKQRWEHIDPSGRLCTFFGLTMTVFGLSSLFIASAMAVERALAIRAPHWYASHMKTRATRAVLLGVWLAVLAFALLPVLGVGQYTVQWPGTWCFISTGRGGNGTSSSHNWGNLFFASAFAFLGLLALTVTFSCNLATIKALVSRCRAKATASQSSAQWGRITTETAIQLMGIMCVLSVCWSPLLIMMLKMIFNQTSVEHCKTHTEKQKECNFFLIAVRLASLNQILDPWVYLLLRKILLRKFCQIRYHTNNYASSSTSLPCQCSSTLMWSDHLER

[17] = target: Prostaglandin E2 receptor EP3 subtype (Homo sapiens, UniProt P43115); assay: as §1; parameters: ligand concentration 0.5 nM, non-specific ligand with concentration 10 µM Prostaglandin EŽ2 (PGE2), incubation time 60 min, incubation temperature 25 °C
[18] = species on record: Rattus norvegicus; assay: Adrenergic α2, Non-selective Eurofins-Panlabs radioligand binding assay; type: protein assay; conditions: Compound concentration 10.0 uM
[19] = target: Bombesin receptor (Rattus norvegicus) (UniProt P52500+P24053+Q8K418); assay: Bombesin, Non-Selective Eurofins-Panlabs radioligand binding assay; type: protein assay; conditions: Compound concentration 10.0 uM
[20] = target: B1 bradykinin receptor (Homo sapiens) (UniProt P46663); assay: Bradykinin B1 Eurofins-Panlabs radioligand binding assay; conditions: Compound concentration 10.0 uM
[21] = target: C-C chemokine receptor type 5 (Homo sapiens) (UniProt P51681); assay: Chemokine CCR5 Eurofins-Panlabs radioligand binding assay; conditions: Compound concentration 10.0 uM
[22] = target: Prostaglandin F2-alpha receptor (Homo sapiens) (UniProt P43088); assay: Prostanoid FP Eurofins-Panlabs radioligand binding assay; parameters: ligand concentration 0.95 nM; conditions: Compound concentration 10.0 uM
Sequence of Prostaglandin F2-alpha receptor (Homo sapiens) (P43088 whole entry): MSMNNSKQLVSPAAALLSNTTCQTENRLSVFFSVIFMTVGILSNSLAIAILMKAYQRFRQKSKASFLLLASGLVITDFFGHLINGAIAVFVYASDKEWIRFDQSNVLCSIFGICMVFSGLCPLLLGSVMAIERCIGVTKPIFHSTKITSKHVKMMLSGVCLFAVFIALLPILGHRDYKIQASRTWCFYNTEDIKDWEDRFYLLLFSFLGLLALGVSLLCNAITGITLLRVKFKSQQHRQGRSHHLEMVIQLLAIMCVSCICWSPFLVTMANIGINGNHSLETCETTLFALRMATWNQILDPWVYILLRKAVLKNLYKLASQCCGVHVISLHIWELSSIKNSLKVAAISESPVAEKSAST

[23] = target: cGMP-specific 3',5'-cyclic phosphodiesterase (Homo sapiens, UniProt O76074)
[24] = target: D(1A) dopamine receptor (Homo sapiens, UniProt P21728); conditions: Compound concentration 10.0 uM
Sequence of D(1A) dopamine receptor (P21728 whole entry): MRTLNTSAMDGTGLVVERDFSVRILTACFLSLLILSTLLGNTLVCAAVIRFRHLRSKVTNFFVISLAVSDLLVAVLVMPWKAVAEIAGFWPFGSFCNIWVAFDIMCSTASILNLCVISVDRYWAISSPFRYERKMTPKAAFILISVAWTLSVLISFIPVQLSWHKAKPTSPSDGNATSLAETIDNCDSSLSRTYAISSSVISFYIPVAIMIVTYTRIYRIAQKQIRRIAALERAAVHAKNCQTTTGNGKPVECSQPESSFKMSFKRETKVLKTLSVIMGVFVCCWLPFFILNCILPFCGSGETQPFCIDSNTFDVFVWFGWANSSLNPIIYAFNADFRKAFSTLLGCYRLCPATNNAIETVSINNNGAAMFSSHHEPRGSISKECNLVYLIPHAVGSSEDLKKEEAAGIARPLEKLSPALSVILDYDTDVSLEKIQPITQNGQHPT

[25] = target: D(3) dopamine receptor (Homo sapiens) (UniProt P35462)
Sequence of D(3) dopamine receptor (Homo sapiens) (P35462 whole entry): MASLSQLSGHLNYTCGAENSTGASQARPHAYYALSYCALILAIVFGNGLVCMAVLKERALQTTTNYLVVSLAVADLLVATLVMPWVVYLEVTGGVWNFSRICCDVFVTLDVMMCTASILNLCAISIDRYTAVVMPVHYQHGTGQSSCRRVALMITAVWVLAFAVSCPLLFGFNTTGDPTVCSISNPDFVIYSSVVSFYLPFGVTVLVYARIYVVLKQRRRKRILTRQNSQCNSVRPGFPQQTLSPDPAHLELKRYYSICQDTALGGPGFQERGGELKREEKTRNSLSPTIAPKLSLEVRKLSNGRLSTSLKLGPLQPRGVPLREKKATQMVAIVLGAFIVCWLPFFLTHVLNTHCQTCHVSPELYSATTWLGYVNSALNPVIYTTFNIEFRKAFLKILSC

[26] = target: Endothelin-1 receptor (Homo sapiens) (UniProt P25101); conditions: Compound concentration 10.0 uM
[27] = target: Histamine H2 receptor (Homo sapiens) (UniProt P25021)
Sequence of Histamine H2 receptor (Homo sapiens) (P25021 whole entry): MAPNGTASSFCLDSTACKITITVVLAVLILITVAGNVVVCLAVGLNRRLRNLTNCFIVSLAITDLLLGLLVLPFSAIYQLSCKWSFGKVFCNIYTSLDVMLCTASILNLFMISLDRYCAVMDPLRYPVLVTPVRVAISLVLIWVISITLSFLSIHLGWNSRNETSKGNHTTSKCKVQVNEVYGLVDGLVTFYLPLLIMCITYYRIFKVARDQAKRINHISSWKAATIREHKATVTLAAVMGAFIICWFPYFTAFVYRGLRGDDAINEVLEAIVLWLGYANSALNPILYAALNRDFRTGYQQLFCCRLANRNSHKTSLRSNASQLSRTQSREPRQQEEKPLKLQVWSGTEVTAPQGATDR

[28] = target: Mu-type opioid receptor (Homo sapiens) (UniProt P35372); conditions: Compound concentration 10.0 uM
[29] = target: Glutamate receptor 2 (Homo sapiens) (UniProt P42262); conditions: Rattus norvegicus; Compound concentration 10.0 uM
[30] = target: Vasopressin V1a receptor (Homo sapiens) (UniProt P37288); conditions: Compound concentration 10.0 uM

Sequence of Epidermal growth factor receptor (P00533 whole entry): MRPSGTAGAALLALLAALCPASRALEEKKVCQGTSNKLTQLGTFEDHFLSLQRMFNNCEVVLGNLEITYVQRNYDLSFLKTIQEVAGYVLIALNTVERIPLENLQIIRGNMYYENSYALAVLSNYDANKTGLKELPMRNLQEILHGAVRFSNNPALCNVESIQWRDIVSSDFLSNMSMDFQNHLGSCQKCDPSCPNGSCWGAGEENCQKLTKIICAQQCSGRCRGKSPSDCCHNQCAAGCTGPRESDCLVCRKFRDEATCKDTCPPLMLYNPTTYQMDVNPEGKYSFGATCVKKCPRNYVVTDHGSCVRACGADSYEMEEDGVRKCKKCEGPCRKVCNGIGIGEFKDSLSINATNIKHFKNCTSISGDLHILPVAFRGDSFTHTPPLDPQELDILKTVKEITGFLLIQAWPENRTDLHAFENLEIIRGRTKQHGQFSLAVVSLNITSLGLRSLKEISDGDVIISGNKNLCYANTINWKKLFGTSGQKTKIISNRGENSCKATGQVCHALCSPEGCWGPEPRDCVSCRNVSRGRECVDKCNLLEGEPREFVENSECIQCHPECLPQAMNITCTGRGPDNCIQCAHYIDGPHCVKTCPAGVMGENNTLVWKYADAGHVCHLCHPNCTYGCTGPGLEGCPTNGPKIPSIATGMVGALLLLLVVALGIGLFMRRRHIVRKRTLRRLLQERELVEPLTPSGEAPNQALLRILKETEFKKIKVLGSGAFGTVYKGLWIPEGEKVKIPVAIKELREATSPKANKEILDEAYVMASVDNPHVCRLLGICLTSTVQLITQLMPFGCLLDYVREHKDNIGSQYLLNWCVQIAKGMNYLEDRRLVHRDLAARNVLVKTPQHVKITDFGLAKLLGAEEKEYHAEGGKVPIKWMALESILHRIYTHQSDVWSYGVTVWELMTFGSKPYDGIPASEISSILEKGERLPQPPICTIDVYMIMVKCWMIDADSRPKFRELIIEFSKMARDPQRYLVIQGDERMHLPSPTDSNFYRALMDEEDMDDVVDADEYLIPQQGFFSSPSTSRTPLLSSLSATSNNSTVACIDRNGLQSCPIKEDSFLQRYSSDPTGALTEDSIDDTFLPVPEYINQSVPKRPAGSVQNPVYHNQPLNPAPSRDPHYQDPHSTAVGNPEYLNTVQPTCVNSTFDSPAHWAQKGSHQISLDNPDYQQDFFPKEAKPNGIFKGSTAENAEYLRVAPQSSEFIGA

For `O=C(O)c1cc(-c2ccc(C3CCNCC3)cc2)c2ccc(-c3ccc(C(F)(F)F)cc3)cc2c1` [PPTN], the inhibition [1] was 35%, the inhibition [2] was -1% and the inhibition [3] was -1%. For the same molecule, the IC50 [4] was 8.03 µM, the Ki [4] was 3.21 µM and the inhibition at 60 min, 10 µM [5] was -6% (not active). For the same molecule, the inhibition [6] was -10%, the inhibition [7] was 2% and the inhibition [8] was 34%. For the same molecule, the inhibition [9] was -4%, the inhibition [10] was 11% and the inhibition [11] was 9%. For the same molecule, the inhibition [12] was 3%, the inhibition at 60 min, 10 µM [13] was 3% (not active) and the inhibition [14] was -5%. It also gave an inhibition [15] of 12%, an inhibition ([16]; Compound concentration 0.01 uM) of 11% and an inhibition ([16]; Compound concentration 0.1 uM) of 14%. The inhibition ([16]; Compound concentration 1.0 uM) was 4%, the inhibition ([16]; Compound concentration 10.0 uM) was 53% and the IC50 [17] was 9.27 µM. It also gave an inhibition [18] of -1%, an inhibition [19] of 4% and an inhibition [20] of 12%. The inhibition [21] was 4%, the inhibition [22] was 15% and the IC50 [23] was 38.2 µM. For the same molecule, the inhibition [24] was 22%, the inhibition ([25]; Compound concentration 0.01 uM) was 3% and the inhibition ([25]; Compound concentration 0.1 uM) was 1%. It also gave an inhibition ([25]; Compound concentration 1.0 uM) of 12%, an inhibition ([25]; Compound concentration 10.0 uM) of 56% and an inhibition [26] of 6%. For the same molecule, the inhibition ([27]; Compound concentration 0.01 uM) was 9%, the inhibition ([27]; Compound concentration 0.1 uM) was 4% and the inhibition ([27]; Compound concentration 1.0 uM) was 7%. The inhibition ([27]; Compound concentration 10.0 uM) was 101%, the inhibition [28] was -1% and the inhibition [29] was -2%. The inhibition [30] was 3%.
